Data reported in BindingDB's records for doi:10.7270/Q29Z94WS (Warner-Lambert, 1995).

Biological target: T1, Sterol O-acyltransferase 1 (Rattus norvegicus, UniProt O70536)
T1 sequence (O70536 whole entry): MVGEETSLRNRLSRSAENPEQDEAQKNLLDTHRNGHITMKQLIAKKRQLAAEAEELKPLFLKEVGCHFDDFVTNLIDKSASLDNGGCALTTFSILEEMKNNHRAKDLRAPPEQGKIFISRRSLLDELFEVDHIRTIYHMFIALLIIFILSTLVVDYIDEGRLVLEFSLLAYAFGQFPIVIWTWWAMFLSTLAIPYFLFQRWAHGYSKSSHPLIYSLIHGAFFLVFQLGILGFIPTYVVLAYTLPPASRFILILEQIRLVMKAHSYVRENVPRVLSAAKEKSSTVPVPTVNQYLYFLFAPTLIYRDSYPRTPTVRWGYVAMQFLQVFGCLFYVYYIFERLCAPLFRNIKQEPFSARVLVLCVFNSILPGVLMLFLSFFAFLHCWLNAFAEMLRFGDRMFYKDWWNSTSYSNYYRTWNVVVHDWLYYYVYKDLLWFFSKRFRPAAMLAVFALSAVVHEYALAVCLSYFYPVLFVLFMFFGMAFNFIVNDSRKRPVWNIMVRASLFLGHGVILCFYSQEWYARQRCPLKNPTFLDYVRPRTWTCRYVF
Assay: ChEBML_28484
Procedure: (§1) Concentration required for the in vitro inhibition of Acyl coenzyme A:cholesterol acyltransferase (ACAT) in liver microsomes isolated from cholesterol-fed rats was determined

SMILES	IC50
CCCCCCCC[C@@H](SCCCCCC)C(=O)Nc1c(SC)cc[n+](C)c1SC	22 nM
CCCCCCCCCCCCn1nnnc1C(C(=O)Nc1c(OC)cc(OC)cc1OC)c1ccccc1 (configuration not stated)	52 nM
CCCCCCCCCCCCn1nnc(C(C(=O)Nc2c(OC)cc(OC)cc2OC)c2ccccc2)n1 (configuration not stated) [2-(2-Dodecyl-2H-tetrazol-5-yl)-2-phenyl-N-(2,4,6-trimethoxy-phenyl)-acetamide]	14 nM
CCCCCCCCCCCCn1nnc(C(C(=O)Nc2c(C(C)C)cccc2C(C)C)c2ccccc2)n1 (configuration not stated) [N-(2,6-Diisopropyl-phenyl)-2-(2-dodecyl-2H-tetrazol-5-yl)-2-phenyl-acetamide]	10 nM

More lines, in order of falling IC50, values ahead:

IC50	SMILES
160 nM	CCCCCCCC[C@H](SCCCCCC)C(=O)Nc1c(SC)cc[n+](C)c1SC
79 nM	CCCCCCCCCCCCn1nnnc1C(C(=O)Nc1c(C(C)C)cccc1C(C)C)c1ccccc1 (configuration not stated)

Biological target: T1, Sterol O-acyltransferase 1
Assay: as §1

IC50	SMILES
24 nM	CCCCCCCCCCCCn1nnc(C(C(=O)Nc2c(OC)cc(OC)cc2OC)c2ccccc2)n1 (configuration not stated) [2-(2-Dodecyl-2H-tetrazol-5-yl)-2-phenyl-N-(2,4,6-trimethoxy-phenyl)-acetamide]
